“Also recorded” adds a separate entry of the source. A value given as a limit tells only on which side of the number the result lay.

The subject of series [1] is Bacillus subtilis ATCC 6633. In words: MIC and synergy index of natamycin/LAE solutions. The class given is cell-based. On the procedure:
(§1) In this example the influence of the synergism of combinations of LAE and natamycin in the inventive composition has been investigated.
(§2) For that purpose propylene glycol solutions with different concentrations of LAE and natamyin were prepared.
(§3) The effects of these preparations were investigated against the moulds Aspergillus niger, Penicillium caseicolum, Cladosporium cladosporioides and Rhizopus, the bacteria Escherichia coli (ATCC 8739), Salmonella typhimurium (ATCC 14028), Listeria monocytogenes (ATCC 15313), Bacillus subtilis (ATCC 6633) and the yeasts Candida albicans (ATCC 10231) and Saccharomyces cerevisiae (ATCC 9763).
(§4) The table indicates the MIC values found at different relationship between natamycin and LAE, whereby a value for natamycin: LAE 1:1 means the same concentration for both substances in the antimicrobial composition.
(§5) The interaction of the two components of the antimicrobial mixture is calculated according to the method described by Kull et al. (Kull F. C., Eisman P. C., Sylwestrowicz H. D. and Mayer R. L., Applied Microbiology, 1961; 6: 538-541). According to this method the so-called synergy index is calculated according to the following formula:
(§6) Synergy index SI=Qlae/QLAE+Qn/QN.
(§7) The elements used for the calculation of the synergy index according to the above formula have the following meaning: • Qlae=minimum inhibition concentration of LAE in the mixture of LAE and natamycin, • QLAE=minimum inhibition concentration of LAE as single antimicrobial without natamycin, • Qn=minimum inhibition concentration of natamycin in the mixture of LAE and natamycin and • QN=minimum inhibition concentration of natamycin as single antimicrobial without LAE.
(§8) All indicated symbols indicate a particular concentration leading to a particular end point, in this case the inhibition of growth of the microorganisms, so that the selected end point is in fact the minimal inhibitory concentration (MIC).
(§9) When the synergy index is 1, then there is an addition of the effects of the two components.
(§10) Qn: MIC of natamycin in the mixture of natamycin and LAE QN: MIC of natamycin alone Qlae: MIC of LAE in the mixture of natamycin and LAE QLAE: MIC of LAE alone
(§11) The MIC values of natamycin alone (QN) reported in tables 5 to 8 corresponds to the maximum value studied. However, the real MIC of natamycin is higher than the maximum values studied (i.e.: 1024, 2048), accordingly the real SI should be lower than the SI reported in the tables.

For series [2], the system named is Listeria monocytogenes ATCC 15313. In words: MIC and synergy index of natamycin/LAE solutions. The class given is cell-based. On the procedure:
as §1, §2, §3, §4, §5, §6, §7, §8, §9, §10, §11

The test system of series [3] is Escherichia coli ATCC 8739. In words: MIC and synergy index of natamycin/LAE solutions. The class given is cell-based. The method, then: as §1, §2, §3, §4, §5, §6, §7, §8, §9, §10, §11
Series [4] concerns Salmonella typhimurium ATCC 14028. In words: MIC and synergy index of natamycin/LAE solutions. The class given is cell-based. The method, then:
as §1, §2, §3, §4, §5, §6, §7, §8, §9, §10, §11

The test system of series [5] is Penicillum casicolum, Rizopus, Aspergillus niger and Cladosporium cladosporioides. In words: Microbiocidal effect on inoculated cured cheese immersed in baths. The note with it: Lauric arginate 10% bath, 5 seconds immersion; inoculated 4 log CFU/g; 22° C.; up to 15 days; separate treatments; monohydrochloride. The class given is cell-based. On the procedure: Cured cheese was purchased from a local producer. The cheese contains cow milk, sheep milk, goat milk, starters, salt, rennet. The minimum amount of fat 55%/dry weight. Minimum 45 dry weight. Lauric arginate-from […] with purity 90% Ethyl-N^α-lauroyl-L-arginate HCl. Natamycin-95% in dry weight commercially available. Inoculums is a mix of Penicillum casicolum, Rizopus, Aspergillus niger and Cladosporium cladosporioides. Spores seeded in Sabouraud Chloramphenirol agar are incubated at 25° C. for 5 days. Spores are scraped of the agar with Ringer broth and diluted in Brain Heart Infusion broth. Brain Heart Infusion broth is incubated at 25° C. for 5 days. Diluted inoculums are mixed at the desire concentration in order to have the mix inoculums. […] The cheese was sliced and cut in equal portions of 5 centimeters of diameter by 5 millimeters wide in sterile surroundings. The portions of cheese were immersed in the bath for 5 seconds. They were dripped and dried for 5 minutes in a sterile surface. After this, each sample was inoculated with Penicillum casicolum, Rizopus, Aspergillus niger and Cladosporium cladosporioides at target concentration of 4 log CFU/g. Natamycin 95% concentrations: two differently concentrated baths of natamycin were prepared: 500 ppm and 1000 ppm. Lauric arginate concentrations: four differently concentrated baths of Lauric arginate were prepared: 0.5%, 1%, 5% and 10%. […]

Another series relates to Rhizopus. Nature of the series: MIC and synergy index of natamycin/LAE solutions. The class given is cell-based. On the procedure:
as §1, §2, §3, §4, §5, §6, §7, §8, §9, §10

Series [6] deals with Candida albicans ATCC 10231. Nature of the series: MIC and synergy index of natamycin/LAE solutions. Format: cell-based. The method, then: as §1, §2, §3, §4, §5, §6, §7, §8, §9, §10
The test system of series [7] is Cladosporium cladosporioides. In words: MIC and synergy index of natamycin/LAE solutions. The class given is cell-based. The method, then: as §1, §2, §3, §4, §5, §6, §7, §8, §9, §10
Series [8] concerns Saccharomyces cerevisiae ATCC 9763. In words: MIC and synergy index of natamycin/LAE solutions. The class given is cell-based. The method, then:
as §1, §2, §3, §4, §5, §6, §7, §8, §9, §10

Another series has as its system Penicillium caseicolum. In words: MIC and synergy index of natamycin/LAE solutions. Format: cell-based. On the procedure: as §1, §2, §3, §4, §5, §6, §7, §8, §9, §10
A further series relates to Aspergillus niger. In words: MIC and synergy index of natamycin/LAE solutions. The class given is cell-based. The method, then:
as §1, §2, §3, §4, §5, §6, §7, §8, §9, §10

Series [9] is described as follows: Solubility of natamycin in aqueous solution with LAE. Format: physicochemical. The note with it: 10% of LAE in water. An excerpt: According to the dose level between natamycin and LAE, the total solubility of natamycin was observed. […] This low viscosity improves the application process of the solution in the product desired to be treated.
The conditions of series [10]: cited from earlier work.
The mark [11] stands for this setting: value is the maximum value studied, real MIC is higher.

`CCCCCCCCCCCC(=O)N[C@@H](CCCN=C(N)N)C(=O)OCC.Cl` [LAE, ethyl ester of the lauramide of the arginine monohydrochloride]: the “QLAE: MIC of LAE alone” value in series [1] turned out to be 16; in [2], 32; in [3], 32; in series [4], 32; in the series on Rhizopus, 648; in series [6], 16. The “QLAE: MIC of LAE alone” value in series [7] is 64; in series [8] it was 32; with Penicillium caseicolum, 256; in the series on Aspergillus niger it was 128. In [5], the “inhibitory power / microbiocidal effect on cured cheese” value is recorded as “best treatment; also recorded: effective”.
Consider `C[C@@H]1C/C=C/C=C/C=C/C=C/[C@H](O[C@@H]2O[C@H](C)[C@@H](O)[C@H](N)[C@@H]2O)C[C@@H]2O[C@](O)(C[C@@H](O)C[C@H]3O[C@@H]3/C=C/C(=O)O1)C[C@H](O)[C@H]2C(=O)O` [natamycin], for which the “QN: MIC of natamycin alone” value in series [1] (setting [11]) is recorded as above 2048; in [2] (setting [11]), above 1024; in [3] (setting [11]) it was above 1024; in series [4] (setting [11]), above 2048; in the series with Rhizopus, 4; in series [6], 2. The “QN: MIC of natamycin alone” value in series [7] is 1; in [8], 2.5; in the series with Penicillium caseicolum it was 1; in the series with Aspergillus niger, 2. Moreover, the natamycin solubilised result in series [9] is “more than 1000 ppm”. Also, the “solubility of natamycin in water” value in series [10] is recorded as 0.005-0.010 % (w/w).

Source of the values: US20100305055A1, “COMBINATIONS OF POLYENE FUNGICIDE WITH CATIONIC SURFACTANTS” (Laboratorios Miret, S.A., priority 2007, published 2010).
